Experiments:
[1] = test system: AMARE; assay: greenhouse herbicidal action, post-emergence treatment; assay type: in vivo, common amaranth; settings: post-emergence method, application rates of 7.8 and 3.9 g of a.s./ha
Text: (§1) The seeds of the test plants were sown separately for each species. For the post-emergence treatment, the test plants were first grown to a height of 3 to 15 cm, depending on the plant habit, and then treated with the active compounds which had been suspened or emulsified in water. To this end, the test plants were either sown directly and grown in the same containers, or they were first grown separately as seedlings and transplanted into the test containers a few days prior to the treatment. The application rates for the post-emergence treatments were 62.5, 31.2, 15.6, 7.8 and 3.9 g of a.s./ha. Depending on the species, the plants were kept at 10-25° C. or 20-35° C. The test period extended over 2 to 4 weeks. During this time, the plants were tended, and their response to the individual treatments was evaluated. Evaluation was carried out using a scale from 0 to 100. 100 means no emergence of the plants, or complete destruction of at least the above-ground parts, and O means no damage, or normal course of growth. The plants used in the greenhouse experiments were of the following species: [table]

[2] = test system: PHBPU; assay: as above; assay type: in vivo, common morning glory; settings: post-emergence method, application rates of 7.8 and 3.9 g of a.s./ha
Text: as §1

[3] = test system: CHEAL; assay: as above; assay type: in vivo, lambsquarters (goosefoot); settings: post-emergence method, application rates of 7.8 and 3.9 g of a.s./ha
Text: as §1

[4] = test system: ABUTH; assay: as above; assay type: in vivo, velvet leaf; settings: post-emergence method, application rates of 7.8 and 3.9 g of a.s./ha
Text: as §1

Compound | herbicidal activity against AMARE [1] | herbicidal activity against PHPBU [2] | herbicidal activity against CHEAL [3] | herbicidal activity against ABUTH [4] | melting point [°C]
2-[4-Chloro-2-fluoro-5-(2-propynyloxy)phenyl]-3-thiotetrahydro-1H-(1,2,4)triazolo[1,2-c][1,3,4]oxadiazin-1-one [Example 5] | very good | very good | very good | very good | –
C#CCOc1cc(-n2c(=O)n3n(c2=S)COCC3)c(F)cc1C#N [Example 75, 2-[4-Cyano-2-fluoro-5-(propargyloxy)phenyl]-3-thioxotetrahydro-1H-[1,2,4]-triazolo-[1,2-c][1,3,4]-oxadiazin-1-one] | – | – | – | – | 226 to 227
